The values that follow come from publication PMC11233931, “Remodeling tumor‐associated macrophage for anti‐cancer effects by rational design of irreversible inhibition of mitogen‐activated protein kinase‐activated protein kinase 2” (MedComm, 2024).

What is called inhibition is the drop in the measured response relative to a control, in per cent.

Holding throughout (test): Eurofins kinase selectivity profile against 380 other human recombinant kinases (Table S2)
Holding throughout (format): biochemical

Assay [1] addresses T1, 380 human recombinant protein kinases (Homo sapiens, UniProt O00506).
T1 construct: purchased Eurofins (Celle Lévescault)
To be noted: STK25(h), read-out: Inhibition rate (%). In short, it runs like this: (§1)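 Off-target profiling: one compound assayed by a commercial provider over 380 recombinant human protein kinases at various concentrations.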

Assay [2] has as its target T2, 380 human recombinant protein kinases (Homo sapiens, UniProt O75460).
T2 construct: purchased Eurofins (Celle Lévescault)
The following applies: IRE1(h), read-out: Inhibition rate. In short, it runs like this:
as §1

In assay [3] the target is T3, 380 human recombinant protein kinases (Homo sapiens, UniProt O95747).
T3 construct: purchased Eurofins (Celle Lévescault)
T3 sequence (O95747 whole entry): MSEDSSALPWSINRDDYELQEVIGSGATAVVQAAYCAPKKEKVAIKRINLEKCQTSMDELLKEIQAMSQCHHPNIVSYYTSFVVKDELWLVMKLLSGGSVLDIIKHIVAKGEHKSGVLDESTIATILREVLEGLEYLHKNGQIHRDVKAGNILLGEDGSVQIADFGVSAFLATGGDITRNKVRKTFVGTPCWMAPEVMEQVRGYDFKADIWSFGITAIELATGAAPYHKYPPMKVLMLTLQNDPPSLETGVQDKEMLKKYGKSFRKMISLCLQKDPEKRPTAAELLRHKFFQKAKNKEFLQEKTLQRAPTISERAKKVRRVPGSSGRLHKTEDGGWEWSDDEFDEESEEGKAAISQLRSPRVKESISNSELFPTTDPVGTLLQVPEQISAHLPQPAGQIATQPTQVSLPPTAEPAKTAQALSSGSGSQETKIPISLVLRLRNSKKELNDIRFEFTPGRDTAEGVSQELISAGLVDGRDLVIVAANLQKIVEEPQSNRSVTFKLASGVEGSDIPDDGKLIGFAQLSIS
The following applies: OSR1(h), read-out: Inhibition rate. The essentials:
as §1

For assay [4], the target named is T4, 380 human recombinant protein kinases (Homo sapiens, UniProt P06239).
T4 construct: purchased Eurofins (Celle Lévescault)
T4 sequence (P06239 whole entry): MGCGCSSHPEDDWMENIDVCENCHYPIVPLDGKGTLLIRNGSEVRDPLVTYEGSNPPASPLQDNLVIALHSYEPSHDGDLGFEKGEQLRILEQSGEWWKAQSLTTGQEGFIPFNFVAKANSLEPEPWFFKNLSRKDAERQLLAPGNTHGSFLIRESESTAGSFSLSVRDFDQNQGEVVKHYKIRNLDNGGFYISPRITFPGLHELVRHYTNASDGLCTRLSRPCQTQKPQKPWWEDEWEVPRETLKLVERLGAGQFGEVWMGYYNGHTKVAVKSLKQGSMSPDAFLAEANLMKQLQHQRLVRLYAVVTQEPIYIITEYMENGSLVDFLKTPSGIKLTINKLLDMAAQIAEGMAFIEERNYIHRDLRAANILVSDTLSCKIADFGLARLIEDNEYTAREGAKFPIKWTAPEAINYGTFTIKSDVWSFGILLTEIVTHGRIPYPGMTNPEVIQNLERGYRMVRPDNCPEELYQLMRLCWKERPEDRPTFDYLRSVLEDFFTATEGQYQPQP
To be noted: Lck(h), read-out: Inhibition rate. The essentials: as §1

In assay [5] the target is T5, 380 human recombinant protein kinases (Homo sapiens, UniProt P29322).
T5 construct: purchased Eurofins (Celle Lévescault)
T5 sequence (P29322 28-1005): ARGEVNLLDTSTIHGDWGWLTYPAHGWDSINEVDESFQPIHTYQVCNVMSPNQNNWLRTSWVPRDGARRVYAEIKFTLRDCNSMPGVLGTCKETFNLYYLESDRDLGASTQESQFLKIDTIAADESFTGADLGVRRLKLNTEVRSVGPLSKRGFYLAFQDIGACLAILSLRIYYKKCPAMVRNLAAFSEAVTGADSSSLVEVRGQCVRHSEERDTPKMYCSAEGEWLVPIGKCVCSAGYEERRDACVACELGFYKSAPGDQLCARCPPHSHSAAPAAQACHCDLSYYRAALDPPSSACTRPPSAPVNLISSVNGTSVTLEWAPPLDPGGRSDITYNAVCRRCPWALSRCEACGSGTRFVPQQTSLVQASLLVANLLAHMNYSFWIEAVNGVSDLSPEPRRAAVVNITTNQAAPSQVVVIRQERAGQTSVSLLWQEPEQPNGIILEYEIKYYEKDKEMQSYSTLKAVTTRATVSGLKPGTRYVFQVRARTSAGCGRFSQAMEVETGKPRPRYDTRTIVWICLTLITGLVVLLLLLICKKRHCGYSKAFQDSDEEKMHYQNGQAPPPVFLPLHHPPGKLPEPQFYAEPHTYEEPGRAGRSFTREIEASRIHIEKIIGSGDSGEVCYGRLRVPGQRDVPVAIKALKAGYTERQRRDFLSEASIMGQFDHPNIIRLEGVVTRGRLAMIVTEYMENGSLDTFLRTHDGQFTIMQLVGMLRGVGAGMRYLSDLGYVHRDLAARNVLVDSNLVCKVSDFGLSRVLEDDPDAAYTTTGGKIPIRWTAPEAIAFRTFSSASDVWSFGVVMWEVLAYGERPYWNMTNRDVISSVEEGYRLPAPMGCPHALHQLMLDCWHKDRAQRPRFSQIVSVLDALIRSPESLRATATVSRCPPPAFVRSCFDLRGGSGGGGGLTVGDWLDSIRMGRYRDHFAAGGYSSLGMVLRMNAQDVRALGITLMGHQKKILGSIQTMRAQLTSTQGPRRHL
The following applies: EphA8(h), read-out: Inhibition rate. In short, it runs like this:
as §1

The target of assay [6] is T6, 380 human recombinant protein kinases (Homo sapiens, UniProt Q13043).
T6 construct: purchased Eurofins (Celle Lévescault)
T6 sequence (Q13043 1-487): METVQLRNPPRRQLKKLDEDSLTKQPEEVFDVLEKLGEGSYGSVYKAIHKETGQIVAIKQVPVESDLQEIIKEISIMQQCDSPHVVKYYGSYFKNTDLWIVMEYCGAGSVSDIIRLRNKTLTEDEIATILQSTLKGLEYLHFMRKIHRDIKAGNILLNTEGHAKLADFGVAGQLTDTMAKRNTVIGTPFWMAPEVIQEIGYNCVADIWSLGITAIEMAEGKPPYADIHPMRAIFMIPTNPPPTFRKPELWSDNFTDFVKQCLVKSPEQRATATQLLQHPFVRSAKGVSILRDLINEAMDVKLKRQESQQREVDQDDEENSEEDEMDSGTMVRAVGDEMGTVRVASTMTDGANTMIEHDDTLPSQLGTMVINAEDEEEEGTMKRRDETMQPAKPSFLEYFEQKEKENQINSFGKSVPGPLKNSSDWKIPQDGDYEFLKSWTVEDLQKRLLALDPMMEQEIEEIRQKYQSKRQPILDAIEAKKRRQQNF
The following applies: MST1(h), read-out: Inhibition rate. In short, it runs like this:
as §1

The target in assay [7] is T7, 380 human recombinant protein kinases (Homo sapiens, UniProt Q8WU08).
T7 construct: purchased Eurofins (Celle Lévescault)
T7 sequence (Q8WU08 whole entry): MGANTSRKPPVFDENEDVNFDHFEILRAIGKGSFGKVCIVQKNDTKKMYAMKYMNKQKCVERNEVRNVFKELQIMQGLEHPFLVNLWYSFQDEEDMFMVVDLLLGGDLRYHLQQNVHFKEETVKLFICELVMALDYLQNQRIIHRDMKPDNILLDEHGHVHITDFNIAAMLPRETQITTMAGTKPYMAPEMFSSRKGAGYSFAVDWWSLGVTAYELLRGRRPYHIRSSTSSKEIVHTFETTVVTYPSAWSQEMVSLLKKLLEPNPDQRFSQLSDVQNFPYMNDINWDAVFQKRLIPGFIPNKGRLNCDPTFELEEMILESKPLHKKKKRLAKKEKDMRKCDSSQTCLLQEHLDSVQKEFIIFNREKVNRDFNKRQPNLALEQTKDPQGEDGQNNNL
The following applies: STK32A(h), read-out: Inhibition rate (%). The essentials:
as §1

T1 sequence (O00506 whole entry): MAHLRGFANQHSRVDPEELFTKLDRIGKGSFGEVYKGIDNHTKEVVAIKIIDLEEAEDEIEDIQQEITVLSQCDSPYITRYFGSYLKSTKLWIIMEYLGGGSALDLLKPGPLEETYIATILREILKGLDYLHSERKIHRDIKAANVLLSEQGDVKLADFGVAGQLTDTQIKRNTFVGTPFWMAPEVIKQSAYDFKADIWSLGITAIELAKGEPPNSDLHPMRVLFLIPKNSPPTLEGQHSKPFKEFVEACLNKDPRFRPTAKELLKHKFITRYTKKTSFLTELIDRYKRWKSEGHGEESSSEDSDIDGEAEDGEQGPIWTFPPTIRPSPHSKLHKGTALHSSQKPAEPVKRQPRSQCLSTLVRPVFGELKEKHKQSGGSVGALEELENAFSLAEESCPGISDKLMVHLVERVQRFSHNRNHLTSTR
T2 sequence (O75460 19-977): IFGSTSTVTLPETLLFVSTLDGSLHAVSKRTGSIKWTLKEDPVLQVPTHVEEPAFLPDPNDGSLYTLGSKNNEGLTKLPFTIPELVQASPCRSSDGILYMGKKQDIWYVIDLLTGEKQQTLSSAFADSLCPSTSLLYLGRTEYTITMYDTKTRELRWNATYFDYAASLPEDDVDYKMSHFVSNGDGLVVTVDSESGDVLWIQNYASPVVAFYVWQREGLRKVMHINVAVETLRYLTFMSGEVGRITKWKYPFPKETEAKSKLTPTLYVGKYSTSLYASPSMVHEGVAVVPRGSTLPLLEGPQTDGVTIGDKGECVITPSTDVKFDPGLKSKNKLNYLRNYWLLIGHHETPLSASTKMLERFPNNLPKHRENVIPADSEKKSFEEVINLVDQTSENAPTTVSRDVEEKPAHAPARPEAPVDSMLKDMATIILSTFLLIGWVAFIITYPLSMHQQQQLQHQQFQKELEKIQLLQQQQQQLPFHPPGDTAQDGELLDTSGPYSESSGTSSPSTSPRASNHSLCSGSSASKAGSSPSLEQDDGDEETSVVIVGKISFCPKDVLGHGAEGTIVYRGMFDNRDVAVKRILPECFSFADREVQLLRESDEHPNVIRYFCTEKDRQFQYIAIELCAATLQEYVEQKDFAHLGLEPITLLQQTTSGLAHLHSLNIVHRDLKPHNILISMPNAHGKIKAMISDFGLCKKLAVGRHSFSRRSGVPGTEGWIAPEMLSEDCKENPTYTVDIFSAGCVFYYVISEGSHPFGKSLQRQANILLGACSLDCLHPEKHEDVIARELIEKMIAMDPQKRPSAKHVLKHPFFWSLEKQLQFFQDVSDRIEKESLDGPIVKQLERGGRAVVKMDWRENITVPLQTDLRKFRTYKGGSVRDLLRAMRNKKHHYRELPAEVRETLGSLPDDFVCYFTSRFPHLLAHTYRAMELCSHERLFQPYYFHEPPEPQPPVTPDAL

As to `C=CC(=O)Nc1cc(-c2cc(-c3cc4c([nH]3)CCNC4=O)ccn2)ccc1OC(F)(F)F` [compound 11], the inhibition at 0.01 µM in assay [1] (10 nM) was -4%; in assay [2] (10 nM), 0%; in assay [3] (10 nM) it was -1%; in assay [4] (10 nM), -7%; in assay [5] (10 nM) it was 1%; in assay [6] (10 nM), -1%. Besides, in assay [7] (10 nM), the inhibition at 0.01 µM came out at 3%. Further, the inhibition at 0.1 µM in assay [1] (100 nM) is 1%; in assay [2] (100 nM) it was -2%; in assay [3] (100 nM), 5%; in assay [4] (100 nM), -5%; in assay [5] (100 nM) it was 2%; in assay [6] (100 nM), -9%. Besides, the inhibition at 0.1 µM in assay [7] (100 nM) was 10%. The inhibition at 1 µM in assay [1] (1000 nM) is 0%; in assay [2] (1000 nM) it was 0%; in assay [3] (1000 nM), 11%; in assay [4] (1000 nM), -10%; in assay [5] (1000 nM), 1%; in assay [6] (1000 nM), 0%. Further, the inhibition at 1 µM in assay [7] (1000 nM) was 7%.
